Laboratory results published in publication PMC11114221, “A pattern recognition artificial olfactory system based on human olfactory receptors and organic synaptic devices” (Science Advances, 2024).

Columns and labels:
Test in all cases: tryptophan fluorescence quenching
Assay type in all cases: binding
Conditions in all cases: receptor nanodiscs 500 nM; 20 mM Hepes, 100 mM NaCl, pH 8.0
hOR52D1 = biological target: T1, hOR52D1 (Homo sapiens, UniProt Q9H346)
T1 construct: gene OR52D1; E. coli SuptoxR (Rosetta 2 (DE3) with RraA); ~38 kDa
T1 sequence (Q9H346 1-318): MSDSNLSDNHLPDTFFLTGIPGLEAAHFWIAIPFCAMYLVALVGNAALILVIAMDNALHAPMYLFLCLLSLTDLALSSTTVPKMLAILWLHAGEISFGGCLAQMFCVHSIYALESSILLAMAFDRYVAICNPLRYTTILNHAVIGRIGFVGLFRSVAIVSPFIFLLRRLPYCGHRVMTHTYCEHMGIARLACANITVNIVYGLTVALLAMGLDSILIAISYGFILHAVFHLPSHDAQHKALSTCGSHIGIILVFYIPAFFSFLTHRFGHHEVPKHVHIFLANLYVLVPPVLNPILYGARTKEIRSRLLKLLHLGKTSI

hOR51E1 = biological target: T2, hOR51E1 (Homo sapiens, UniProt Q8TCB6)
T2 construct: gene OR51E1; E. coli SuptoxR (Rosetta 2 (DE3) with RraA); ~38 kDa
T2 sequence (Q8TCB6 1-318): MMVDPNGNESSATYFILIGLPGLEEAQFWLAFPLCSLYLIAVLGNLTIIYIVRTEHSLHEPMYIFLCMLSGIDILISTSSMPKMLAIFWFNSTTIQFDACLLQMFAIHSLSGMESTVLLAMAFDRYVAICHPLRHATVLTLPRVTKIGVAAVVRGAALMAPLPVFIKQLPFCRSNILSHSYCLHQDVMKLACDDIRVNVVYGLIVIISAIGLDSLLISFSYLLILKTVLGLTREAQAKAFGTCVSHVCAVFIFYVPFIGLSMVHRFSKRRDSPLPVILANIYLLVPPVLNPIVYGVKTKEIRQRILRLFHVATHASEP

hOR51E2 = biological target: T3, hOR51E2 (Homo sapiens, UniProt Q9H255)
T3 construct: gene OR51E2; E. coli SuptoxR (Rosetta 2 (DE3) with RraA); ~38 kDa
T3 sequence (Q9H255 1-320): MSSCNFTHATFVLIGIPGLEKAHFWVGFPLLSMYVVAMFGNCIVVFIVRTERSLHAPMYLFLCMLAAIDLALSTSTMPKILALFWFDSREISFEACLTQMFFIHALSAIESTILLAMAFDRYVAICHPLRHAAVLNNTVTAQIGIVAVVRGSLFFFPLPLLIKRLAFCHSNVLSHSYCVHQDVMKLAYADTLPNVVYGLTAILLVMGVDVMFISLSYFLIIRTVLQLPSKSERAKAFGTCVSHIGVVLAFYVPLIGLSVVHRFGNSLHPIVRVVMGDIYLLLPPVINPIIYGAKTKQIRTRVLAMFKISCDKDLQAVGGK

SMILES	∆F/F0 (%) (hOR52D1)	∆F/F0 (%) (hOR51E1)	∆F/F0 (%) (hOR51E2)
CCCC(=O)O [BA, butyric acid]	each hOR ND displayed distinct binding affinities toward the SCFAs	each hOR ND displayed distinct binding affinities toward the SCFAs	each hOR ND displayed distinct binding affinities toward the SCFAs
CCCCCC(=O)O [HA, hexanoic acid]	each hOR ND displayed distinct binding affinities toward the SCFAs	each hOR ND displayed distinct binding affinities toward the SCFAs	each hOR ND displayed distinct binding affinities toward the SCFAs
CCC(=O)O [PA, propionic acid]	each hOR ND displayed distinct binding affinities toward the SCFAs	each hOR ND displayed distinct binding affinities toward the SCFAs	each hOR ND displayed distinct binding affinities toward the SCFAs
CCCCC(=O)O [VA, valeric acid]	each hOR ND displayed distinct binding affinities toward the SCFAs	each hOR ND displayed distinct binding affinities toward the SCFAs	each hOR ND displayed distinct binding affinities toward the SCFAs
